# Key:
# [1] = Ability to block capsaicin-induced calcium influx in rat-human chimera TRPV1 expressing CHO cells; assay type: cell-based
# [2] = Ability to block acid-induced calcium influx in rat-human chimera TRPV1 expressing CHO cells; assay type: cell-based
SMILES,IC50 [1] [nM],IC50 [2] [nM]
COc1ccc(NC(=O)c2csc(Cc3c(Cl)cccc3Cl)n2)cc1,> 4000,> 4000
O=C(Nc1cccc(Br)c1)c1csc(Cc2c(Cl)cccc2Cl)n1,> 4000,> 4000
O=C(Nc1ccccc1)c1csc(Cc2c(Cl)cccc2Cl)n1,> 4000,> 4000
COc1ccc(NC(=O)c2csc(Cc3c(Cl)cccc3Cl)n2)cn1,> 4000,> 4000
CCc1ccc(NC(=O)c2csc(Cc3c(Cl)cccc3Cl)n2)cc1,810,1450
O=C(Nc1ccc(C(F)(F)F)cc1)c1csc(Nc2c(Cl)cccc2C(F)(F)F)n1,> 4000,> 4000
O=C(Nc1ccc(C(F)(F)F)cc1)c1cnc(Cc2c(Cl)cccc2Cl)s1,790,1780
O=C(Nc1ccccc1Br)c1csc(Cc2c(Cl)cccc2Cl)n1,> 4000,> 4000
O=C(Nc1ccc(Br)cn1)c1csc(Cc2c(Cl)cccc2Cl)n1,> 4000,> 4000
O=C(Nc1ccc(C(F)(F)F)cc1)c1csc(CCc2c(Cl)cccc2Cl)n1,> 4000,> 4000
Cc1nc(Cc2c(Cl)cccc2Cl)sc1C(=O)Nc1ccc(C(F)(F)F)cc1,–,> 4000
O=C(Nc1ccc(C(F)(F)F)cc1)c1csc(-c2c(Cl)cccc2Cl)n1,> 4000,> 4000

# The next lines start with the values.
IC50 [1] [nM],IC50 [2] [nM],SMILES
1010,1020,Cn1cc(C(=O)Nc2ccc(C(F)(F)F)cc2)nc1Cc1c(Cl)cccc1Cl
51,48,O=C(Nc1ccc(C(F)(F)F)cc1)c1csc(Nc2c(Cl)cccc2Cl)n1
370,520,CC(C)c1ccc(NC(=O)c2csc(Cc3c(Cl)cccc3Cl)n2)cc1
110,130,O=C(Nc1ccc(C(F)(F)F)nc1)c1csc(Cc2c(Cl)cccc2Cl)n1
1750,1410,O=C(Nc1ccc(C(F)(F)F)cc1)c1csc(Nc2ccccc2Cl)n1
450,720,N#Cc1ccc(NC(=O)c2csc(Cc3c(Cl)cccc3Cl)n2)cc1
290,350,O=C(Nc1ccc(C(F)(F)C(F)(F)F)cc1)c1csc(Cc2c(Cl)cccc2Cl)n1
570,300,CC(C)(C)c1ccc(NC(=O)c2csc(Cc3c(Cl)cccc3Cl)n2)cc1
400,460,O=C(Nc1ccc(Br)cc1)c1csc(Cc2c(Cl)cccc2Cl)n1
230,230,O=C(Nc1ccc(C(F)(F)F)cc1)c1c[nH]c(Cc2c(Cl)cccc2Cl)n1
> 4000,1270,CN(C)c1ccc(NC(=O)c2csc(Cc3c(Cl)cccc3Cl)n2)cc1
360,880,O=C(Nc1ccc(C(F)(F)F)cc1)c1csc(Nc2c(Cl)cncc2Cl)n1
62,200,O=C(Nc1ccc(C(F)(F)F)cc1)c1coc(Cc2c(Cl)cccc2Cl)n1
–,88,O=C(Nc1ccc(C(F)(F)F)cc1)c1csc(Cc2c(Cl)cccc2Cl)n1
90,82,Cc1cccc(C)c1Nc1nc(C(=O)Nc2ccc(C(F)(F)F)cc2)cs1
870,1280,O=C(Nc1ccc(C(F)(F)F)cc1)c1csc(Oc2c(Cl)cccc2Cl)n1

# Reference: ChEMBL document CHEMBL1141866, “Synthesis and evaluation of thiazole carboxamides as vanilloid receptor 1 (TRPV1) antagonists” (Bioorg Med Chem Lett, 2005)
